Experimental data reported in paper PMC12980303, “Development of a novel risk score reflecting the relative harm potential of synthetic cannabinoids based on prevalence estimates, well‐documented intoxication cases and basic pharmacological data” (Addiction (Abingdon, England), 2025).
“And” between values parts separate entries of the source, which are not always exact repeats. Identical values can stand only once. Like-named read-outs stand apart in the source and are kept apart here. Marks after values point to notes of the source that are not given here.

Key:
hCB1 receptor [1] = biological target: T1, hCB1 receptor (Homo sapiens, UniProt P21554)
hCB1 receptor [2] = biological target: T1, hCB1 receptor; assay: competitive [3H]CP‐55940 radioligand binding assay (hCB1 receptor affinity); conditions: [3H]CP‐55940 competition, hCB1 membrane preparations (HEK293‐EBNA), Cheng–Prusoff, 95% CI in brackets
Description: (§1) Receptor assays were performed on three different days and each concentration was tested in duplicate.
From the IC50, the respective Ki values were calculated using the Cheng–Prusoff equation [39].

[3] = risk score from prevalence in routine forensic samples and intoxication cases (G1, PSS, TSS); design: species or system human; conditions: for G total (risk score): G1+G2+G3, higher value = greater toxicological risk; for G2: mean Poison Severity Score (PSS) of all intoxications with the SCRA; for G3: mean Toxicological Significance Score (TSS) of all intoxications with the SCRA; for G1: proportion in intoxication cases relative to prevalence in routine serum/blood and urine samples per quarter, 2013–2021, >1 over‐represented in intoxications
Excerpt: Therefore, higher values indicate substances with a higher risk. […] To take into account the severity of symptoms and the contribution of the specific NPS, two further summands were introduced. The first is based on the PSS, the second on the TSS. Again, higher values were associated with more severe symptoms and a stronger role of the NPS in causing the symptoms.
The risk score is composed of three components (parts G1, G2 and G3) and was designed as follows: (1) Gx=G1x+G2x+G3x,
Equation 2 takes into consideration several components: the number of intoxications with SCRA x in quarter k over the total number of intoxications of all investigated SCRAs in the same quarter; the number of serum/blood samples positive for SCRA x over the total number of serum/blood samples positive for all SCRAs plus the number of urine samples positive for SCRA x over the total number of urine samples positive for all SCRAs (this is divided by two to account for the two different sample types); and the number of quarters in which the SCRA x was prevalent. (2) G1x=∑k=1gak/bk/ck/dk+ek/fk/2/h+i
Consequently, equation 2 was mathematically rearranged. To further simplify the equation and reduce the formula signs, in equation 3 the following simplifications were taken: a/b=ai , c/d=as and e/f=au .
The sum of these quotients was divided by the number of all prevalent quarters (q p ). Prevalent quarters were defined as quarters in which on average the substance was detected in more than 5% of the positive serum and urine samples. If a poisoning occurred in a quarter in which the substance was not prevalent, the number of these quarters was added (q i ). This part of the score has similarities with an OR [42]. If the proportion of routine samples in a given quarter in which an intoxication with the respective substance occurred was zero (a s + a u = 0), a value of 0.01 was used for that quarter in the calculation of the quotient to avoid division by zero.
For part G2, the severity of the intoxication caused by the respective SCRA x was assessed on the basis of reported symptoms and follow‐up information using the PSS [20]. The PSS classifies the intoxication severity into five levels: (0) no, (1) mild, (2) moderate, (3) severe, and (4) fatal intoxication. […] For this purpose, the mean value of the PSS of all intoxications with the respective SCRA x was calculated ( G2x) .
For part G3, the involvement of the SCRA in the respective intoxications was assessed. This was evaluated on the basis of the TSS [21]. Elliott et al. developed the TSS to assess and classify the contribution of NPS in fatalities. In the present study, the TSS was determined to weigh the involvement of the investigated SCRA in the intoxication and the contribution of the SCRA to the observed symptoms. To determine the TSS value, factors such as the determined concentration of the SCRA, the presence of other recreational drugs or medicinal drugs, the general health of the patient and the consumption circumstances need to be considered. […] In cases with more than one drug detected, a TSS of 3 was only assigned where other compounds were present at concentrations below the range in which relevant effects are to be expected.
For the risk score, the mean value of the TSS of all intoxications with substance x was calculated ( G3x) . Analogous to the value of G2x , the value of G3x can theoretically be between 1 and 3. With a value of ‘1’, substance x was not mainly responsible for the symptoms in all of the intoxications (low level of significance), and with a value of ‘3’, it was the main cause in every poisoning in which it was detected.

[4] = occurrence of SCRAs in intoxication samples of the prospective study; design: species or system human; conditions: 2013 to 2021; for No. of intoxications: 139 intoxication samples of the prospective study; for Percentage in %: proportion of 139 intoxications in which the substance was detected
Excerpt: For this study, the 10 SCRAs (AB‐[…], ADB‐[…], AB‐FUBINACA, FUB‐AMB, Cumyl‐PEGACLONE, MDMB‐4en‐PINACA, MDMB‐CHMICA, 5F‐MDMB‐PICA, 5F‐ADB and 5F‐PB‐22) which were most frequently detected in intoxications in a prospective observational study during the time period of 2013 to 2021 were selected (see Table 1). Additionally, JWH‐210, a model compound representative of the early SCRAs, along with two substances prevalent in screenings during years 2019/2020 (5F‐Cumyl‐PEGACLONE and 4F‐MDMB‐BICA), were included in this study (see Tables S2–S7). […] JWH‐018 was also included as a reference compound because of its historical use in this capacity. Including both reference compounds facilitates direct comparison with previously published data, thereby enhancing the relevance and interpretability of the results obtained in the present study. Information on the origin of the test and reference compounds and all chemicals used in this study can be found in Table S1.
The data on intoxication cases used for the development of this risk score were obtained from a prospective study. This study included patients who were treated in an emergency department room following the consumption of an NPS. Clinical symptoms and follow‐up information were documented using a structured questionnaire completed by the attending physicians. The methodology has been previously published. Residual serum (obtained from venous blood) and urine samples, accompanied by the completed questionnaires, were sent to the Poisons Information Center Freiburg for further analysis. The toxicological analyses of serum and urine samples were conducted at the Institute of Forensic Medicine Freiburg. No data was available on previous consumption patterns or potential development of tolerance after continued misuse. The study was conducted in accordance with the Declaration of Helsinki and approved by the regional ethics committee of the University of Freiburg (no. 235/13_130683). The intoxication cases included in this study are those in which SCRA use was confirmed by liquid chromatography tandem mass spectrometry (LC–MS/MS).

hCB1 receptor [5] = biological target: T1, hCB1 receptor; assay: functional [35S]GTPγS hCB1 activation assay; format: biochemical; conditions: for Emax: read-out: [35S]‐GTPγS assay Emax [%] (95% CI)
Description: as §1

[6] = read-out: βarr2 assay EC50 [nM] (95% CI); ref Janssens et al. [43]; cited from earlier work
[7] = relative to CP‐55940; originally normalised to JWH‐018, corrected with factor 0.3268; ref Janssens et al. [43]; cited from earlier work
[8] = read-out: βarr2 assay EC50 [nM] (95% CI); ref Noble et al. [30]; cited from earlier work
[9] = relative to CP‐55940; originally normalised to JWH‐018, corrected with factor 0.3268; ref Noble et al. [30]; cited from earlier work
[10] = relative to CP‐55940; ref Grafinger et al. [27]; cited from earlier work

T1 sequence (P21554 whole entry): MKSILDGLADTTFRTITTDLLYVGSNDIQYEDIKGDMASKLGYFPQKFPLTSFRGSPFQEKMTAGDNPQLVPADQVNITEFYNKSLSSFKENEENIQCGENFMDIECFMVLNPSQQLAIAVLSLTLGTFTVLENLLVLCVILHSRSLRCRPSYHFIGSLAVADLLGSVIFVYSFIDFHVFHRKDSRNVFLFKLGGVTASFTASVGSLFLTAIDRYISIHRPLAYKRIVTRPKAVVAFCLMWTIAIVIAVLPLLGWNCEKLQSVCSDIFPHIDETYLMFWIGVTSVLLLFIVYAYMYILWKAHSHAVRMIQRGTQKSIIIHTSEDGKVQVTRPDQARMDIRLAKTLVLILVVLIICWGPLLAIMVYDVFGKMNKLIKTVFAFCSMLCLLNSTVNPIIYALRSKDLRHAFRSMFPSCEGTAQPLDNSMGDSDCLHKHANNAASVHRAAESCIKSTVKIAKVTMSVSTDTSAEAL

Row | SMILES | Ki (hCB1 receptor [2]; Ki [nM] (95% CI)) | G total (risk score) [3] | G2 [3] | G3 [3] | G1 [3] | No. of intoxications [4] | Percentage in % [4] [%] | EC50 (hCB1 receptor [5]) [nM] | Emax (hCB1 receptor [5]) [%] | also measured
1 | CC(C)(C)C(NC(=O)c1nn(CC2CCCCC2)c2ccccc12)C(N)=O (centres unmarked) | 0.0229 nM and 0.0231 nM | 7.1 | 2.1 | 2.7 | 2.3 | 18 | 13 | 0.467 | 124 | EC50 (hCB1 receptor [1]; read-out: βarr2 assay EC50 [nM] (95% CI); ref Wouters et al. [29]; cited from earlier work): 0.34 nM; βarr2 assay Emax [%] (95% CI) (hCB1 receptor [1]; relative to CP‐55940; originally normalised to JWH‐018, corrected with factor 0.3268; ref Wouters et al. [29]; cited from earlier work): 803.6 ^a (724.3–921.4) %
2 | COC(=O)C(NC(=O)c1cn(CCCCF)c2ccccc12)C(C)(C)C (centres unmarked) [4F‐MDMB‐BICA] | 5.67 nM | 5.5 | 2.0 | 3.0 | 0.48 | 2 | 1.4 | 137 | 104 | EC50 (hCB1 receptor [1]; read-out: βarr2 assay EC50 [nM] (95% CI); ref Cannaert et al. [44]; cited from earlier work): 121 nM; βarr2 assay Emax [%] (95% CI) (hCB1 receptor [1]; relative to CP‐55940; originally normalised to JWH‐018, corrected with factor 0.3268; ref Cannaert et al. [44]; cited from earlier work): 774.2 (685.4–911.9) ^a %
3 | COC(=O)C(NC(=O)c1nn(CCCCCF)c2ccccc12)C(C)(C)C (centres unmarked) [5F‐ADB] | 0.0993 nM | 6.9 | 1.9 | 2.6 | 2.5 | 33 | 24 | 1.95 | 103 | EC50 (hCB1 receptor [1]; ref Wouters et al. [29]; read-out: βarr2 assay EC50 [nM] (95% CI); cited from earlier work): 0.84 nM
4 | CC(C)(c1ccccc1)n1ccc2c(c1=O)c1ccccc1n2CCCCCF [5F‐Cumyl‐PEGACLONE] | 0.0991 nM | 3.1 | 2.0 | 1.0 | 0.11 | 1 | 0.72 | 1.64 | 105 | EC50 (hCB1 receptor [1]; [6]): 0.58 nM; βarr2 assay Emax [%] (95% CI) (hCB1 receptor [1]; [7]): 1089 (988.4–1190) ^a %
5 | COC(=O)C(NC(=O)c1cn(CCCCCF)c2ccccc12)C(C)(C)C (centres unmarked) [5F‐MDMB‐PICA] | 0.321 nM | 8.1 | 2.1 | 2.8 | 3.2 | 15 | 11 | 7.88 | 112 | EC50 (hCB1 receptor [1]; [8]): 3.26 nM; βarr2 assay Emax [%] (95% CI) (hCB1 receptor [1]; [9]): 1014 (951.7–1075) ^a %
6 | CC(C)C(NC(=O)c1nn(Cc2ccc(F)cc2)c2ccccc12)C(N)=O (centres unmarked) [AB‐FUBINACA] | 0.385 nM | – | – | – | – | – | – | 17.5 | 114 | EC50 (hCB1 receptor [1]; [8]): 15.6 nM; βarr2 assay Emax [%] (95% CI) (hCB1 receptor [1]; [9]): 990.5 (922.9–1059) ^a %
7 | CCCCCCC(C)(C)c1ccc([C@@H]2C[C@H](O)CC[C@H]2CCCO)c(O)c1 [CP‐55940, reference compound] | – | – | – | – | – | – | – | – | 96.9 | –
8 | CCCCCn1c2ccccc2c2c(=O)n(C(C)(C)c3ccccc3)ccc21 [Cumyl‐PEGACLONE] | 0.242 nM | 4.5 | 2.0 | 2.2 | 0.32 | 5 | 3.6 | 12.4 | 117 | EC50 (hCB1 receptor [1]; [6]): 0.23 nM; βarr2 assay Emax [%] (95% CI) (hCB1 receptor [1]; [7]): 1053 (960.8–1148) ^a %
9 | CCCCCn1cc(C(=O)c2cccc3ccccc23)c2ccccc21 [JWH‐018, reference compound] | 2.86 nM | – | – | – | – | – | – | 38.6 | 118 | βarr2 assay Emax [%] (95% CI) (hCB1 receptor [1]; [10]): 306 ^b (281–333) %
10 | CCCCCn1cc(C(=O)c2ccc(CC)c3ccccc23)c2ccccc21 [JWH‐210] | – | 5.7 | 1.6 | 2.7 | 1.4 | 3 | 2.2 | 41.9 | 93.4 | EC50 (hCB1 receptor [1]; read-out: βarr2 assay EC50 [nM] (95% CI); ref Cannaert et al. [45]; cited from earlier work): 25.3 nM; βarr2 assay Emax [%] (95% CI) (hCB1 receptor [1]; relative to CP‐55940; originally normalised to JWH‐018, corrected with factor 0.3268; ref Cannaert et al. [45]; cited from earlier work): 714.2 (672.3–759.5) ^a ^, ^i %; Ki (hCB1 receptor [2]; read-out: Ki [nM] (95% CI)): 1.43 nM
11 | C=CCCCn1nc(C(=O)NC(C(=O)OC)C(C)(C)C)c2ccccc21 (centres unmarked) [MDMB‐4en‐PINACA] | – | 6.8 | 2.2 | 3.0 | 1.6 | 6 | 4.3 | 13.4 | 114 | EC50 (hCB1 receptor [1]; ref Grafinger et al. [27]; read-out: βarr2 assay EC50 [nM] (95% CI); cited from earlier work): 1.88 nM; βarr2 assay Emax [%] (95% CI) (hCB1 receptor [1]; [10]): 679 (623–730) %
12 | COC(=O)C(NC(=O)c1cn(CC2CCCCC2)c2ccccc12)C(C)(C)C (centres unmarked) [MDMB‐CHMICA] | 0.935 nM | 5.7 | 2.2 | 2.8 | 0.73 | 31 | 22 | 11.8 | 103 | EC50 (hCB1 receptor [1]; read-out: βarr2 assay EC50 [nM] (95% CI); ref Wouters et al. [31]; cited from earlier work): 2.2 nM; βarr2 assay Emax [%] (95% CI) (hCB1 receptor [1]; relative to CP‐55940; ref Wouters et al. [31]; cited from earlier work): 885.7 (818.5–958.0) %
